These results are taken from PMC3975393, “Structure of N-Terminal Sequence Asp-Ala-Glu-Phe-Arg-His-Asp-Ser of Aβ-Peptide with Phospholipase A2 from Venom of Andaman Cobra Sub-Species Naja naja sagittifera at 2.0 Å Resolution” (International Journal of Molecular Sciences, 2014).

This test deals with PLA2. Kind of test: X-ray co-crystal structure of the complex with PLA2 (PDB 3JQ5). In kind it is binding, Naja naja sagittifera. The following applies: 2.0 Å resolution, peptide at 10-fold high molar concentration, 10 mM sodium phosphate pH 6.0, 1 mM CaCl2, 3 h incubation. Here is the method: The lyophilized samples of crude cobra venom of Naja naja sagittifera were obtained from Irula Snake Catchers Industrial Cooperative Society, Chennai, India. The crude venom was dissolved in 50 mM Tris-HCl, 100 mM NaCl, pH 7.0 at 100 mg/mL concentration and centrifuged at 12,000× g for 10 min to remove insoluble material. The collected supernatant was size fractionated on Sephadex G-100 column (100 × 2 cm) pre-equilibrated with 50 mM Tris-HCl, 100 mM NaCl, pH 7.0. The column was eluted with the same buffer at a flow rate of 6 mL/h. The peak corresponding to molecular weight of 14 kDa on SDS-PAGE and showing PLA2 activity was pooled for further purification. The pooled fractions were desalted and dialysed against 50 mM Tris-HCl, pH 7.0 and loaded on CM Sephadex C-50 column (Pharmacia, Uppsala, Sweden). The column was washed with the above buffer. The unbound fractions were pooled and dialysed against ammonium acetate buffer, pH 6.0. […] The N-terminal sequence of the first 15 residues was determined. […]
The crystal structure was determined with molecular replacement method using auto-AMoRe from the CCP4 software suit (Collaborative Computational Project, Number 4, 1994). […] The rotation and translation functions calculated with data in the resolution range, 12.0–3.5 Å yielded a unique solution with the first peak being very distinct. […]

As for “Asp-Ala-Glu-Phe-Arg-His-Asp-Ser [DAEFRHDS]”, the “binding in the substrate binding site / hydrophobic channel of PLA2” value is given as “strongly interacted with the non-polar binding-cavity residues of PLA2”. Further, under “listed as octa-peptide”, the “binding in the substrate binding site / hydrophobic channel of PLA2” value is reported as “fitted well in the substrate binding site of enzyme”.
